Measured values: US12708616B2, “Compositions and methods of treating age-related retinal dysfunction” (THE REGENTS OF THE UNIVERSITY OF CALIFORNIA, priority 2020, dated 2026)
Entries after “also recorded” stand apart in the source; their conditions may differ.

Key:
H3K27ac = assay: Quantitative Western blot of H3K27ac (euchromatin) in retina of photobleached dKO mice; assay type: in vivo, mouse; details: 60 mg/kg bw intraperitoneal 30 min prior to light exposure, 1 d post-bleach
From the text: (§1) Male and female Abca4^−/−Rdh8^−/− mice at 6 to 8 weeks of age were used for the current study. These mice were maintained on a pigmented C57BL/6 background, and age-matched C57BL/6 mice from The Jackson Laboratory were used as wild-type controls. All mice were housed and maintained in a 12-hour light (≤150 lux)/12-hour dark cyclic environment in the University Laboratory Animal Resources center at the University of California, Irvine (UCI) School of Medicine. Bright light-induced retinal damage was generated by exposing photosensitive Abca4^−/−Rdh8^−/− mice to white light delivered at 10,000 lux (150-W spiral lamp, Commercial Electric, Cleveland, OH) for 30 min. Mice were dark-adapted 24 h prior to photobleaching, and pupils were dilated with 1% ophthalmic tropicamide 30 min prior to light exposure. […] All animal handling procedures and experimental protocols were approved by the Institutional Animal Care and Use Committee at UCI and conformed to recommendations of both the American Veterinary Medical Association (AVMA) Panel on Euthanasia and the Association for Research in Vision and Ophthalmology.
(§2) Fresh retina and RPE were harvested from study mice as described previously. […] The blots were imaged, and IR signals were quantified using a LI-COR Odyssey Fc imaging system.

[1] = test system: Abca4−/−Rdh8−/− (dKO) mice; assay: SLO and OCT imaging of bright light-induced retinal damage; assay type: in vivo, mouse; details: 60 mg/kg bw intraperitoneal, 7 d after photobleaching
From the text: Male and female Abca4^−/−Rdh8^−/− mice at 6 to 8 weeks of age were used for the current study. These mice were maintained on a pigmented C57BL/6 background, and age-matched C57BL/6 mice from The Jackson Laboratory were used as wild-type controls. All mice were housed and maintained in a 12-hour light (≤150 lux)/12-hour dark cyclic environment in the University Laboratory Animal Resources center at the University of California, Irvine (UCI) School of Medicine. Bright light-induced retinal damage was generated by exposing photosensitive Abca4^−/−Rdh8^−/− mice to white light delivered at 10,000 lux (150-W spiral lamp, Commercial Electric, Cleveland, OH) for 30 min. Mice were dark-adapted 24 h prior to photobleaching, and pupils were dilated with 1% ophthalmic tropicamide 30 min prior to light exposure. […]
Mice were anesthetized by intraperitoneal injection of ketamine (20 mg/mL) with xylazine (1.75 mg/mL) at a dose of 5 μL/g bw, and pupils were dilated with 1% tropicamide prior to imaging. […] For quantitative measurements of photoreceptor viability, ONL thickness was measured in the InVivoVue software at a distance of 0.45 mm from the optic nerve head in the temporal retina, where the most severe damage is found in bright light-exposed Abca4^−/−Rdh8^−/− mice. […]

HDAC4, 5, 6, 7, and 8 = details: cited from earlier work
H3K9me3 [2] = assay: Quantitative Western blot of H3K9me3 (heterochromatin) in RPE/choroid of bleached dKO mice; assay type: in vivo, mouse; details: 60 mg/kg bw intraperitoneal 30 min prior to light exposure, 1 d post-bleach
From the text: as §1, §2

H3K9me3 [3] = assay: Immunohistochemistry of H3K9me3 in retinal cross-sections of photobleached dKO mice; assay type: in vivo, mouse; details: 60 mg/kg bw intraperitoneal, 1 d after photobleaching, vs DMSO vehicle
From the text: as §1
Mice were euthanized in a CO2 chamber prior to enucleation. […] Fluorescence microscopy images were obtained on a Keyence BZ-X810 fluorescent microscope.

HDAC = details: with exception for HDAC6; read-out: IC50 pan-HDAC; cited from earlier work
HDACs 2, 4, 10, and 11 = details: cited from earlier work
HDACs 6 and 7 = details: cited from earlier work
HDAC11 = target: T1, HDAC11 (Homo sapiens, UniProt Q96DB2); details: mammalian HDAC11; cited from earlier work
T1 sequence (Q96DB2 1-347): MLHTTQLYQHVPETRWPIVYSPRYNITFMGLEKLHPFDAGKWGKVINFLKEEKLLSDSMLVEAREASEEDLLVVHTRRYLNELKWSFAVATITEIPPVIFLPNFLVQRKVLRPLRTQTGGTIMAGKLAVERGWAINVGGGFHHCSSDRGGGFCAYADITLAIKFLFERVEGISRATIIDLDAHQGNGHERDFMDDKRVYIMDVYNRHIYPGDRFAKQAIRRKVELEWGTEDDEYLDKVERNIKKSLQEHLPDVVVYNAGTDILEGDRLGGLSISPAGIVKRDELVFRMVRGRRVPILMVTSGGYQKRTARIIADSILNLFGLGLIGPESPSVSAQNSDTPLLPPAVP

[4] = test system: HDAC11 substrate, serine hydroxymethyl transferase 2; details: cited from earlier work
other HDACs = details: cited from earlier work

For `Nc1ccccc1NC(=O)c1ccc(CNc2nccc(-c3cccnc3)n2)cc1` [Mocetinostat], the “Euchromatin abundance (H3K27ac) in retina” value (H3K27ac) is given as “rescues the stress-induced reduction in euchromatin abundance”, the “Stress-induced retinal pathology by SLO and OCT (ONL thickness)” value [1] is given as “sufficient to ameliorate stress-induced retinal pathology; also recorded: ameliorated” and the “Activity to HDAC4, 5, 6, 7, and 8” value (HDAC4, 5, 6, 7, and 8) is given as “no activity”.

In the case of `COc1cc(OC)c(-c2cn3ccc(N4CC[C@H](NCc5ccncc5)C4)cc3n2)cc1Cl` [OTS186935, (S)-1-(2-(5-chloro-2,4-dimethoxyphenyl)imidazo[1,2-a]pyridin-7-yl)-N-(pyridin-4-ylmethyl)pyrrolidin-3-amine], the “Heterochromatin abundance (H3K9me3) in RPE/choroid” value (H3K9me3 [2]) is reported as “attenuates the stress-induced increase in heterochromatin abundance”, the “H3K9me3 signal in retinal cross-sections (immunohistochemistry)” value (H3K9me3 [3]) is reported as “attenuated” and the “Stress-induced retinal pathology by SLO and OCT (ONL thickness)” value [1] is reported as “sufficient to ameliorate stress-induced retinal pathology; also recorded: ameliorated”.

For `CCCCc1nc2cc(/C=C/C(=O)NO)ccc2n1CCN(CC)CC` [Pracinostat], the IC50 (HDAC) is listed as 0.04 to 0.14 µM.

In the case of `Cn1cc(CNCC2CCN(c3ncc(C(=O)NO)cn3)CC2)c2ccccc21` [Quisinostat], the “Potency to HDACs 2, 4, 10, and 11” value (HDACs 2, 4, 10, and 11) is given as “modest potent” and the “Potency to HDACs 6 and 7” value (HDACs 6 and 7) is given as “lowest potency”.

In the case of `CCCCCCCCCCCCCCCCNNC(=O)c1cccs1` [SIS17], the IC50 (HDAC11) is listed as 0.83 µM, the “Demyristoylation of serine hydroxymethyl transferase 2” value [4] is listed as “inhibits the demyristoylation” and the “Inhibition of other HDACs” value (other HDACs) is listed as “without inhibiting other HDACs”.
